Measured values published in patent US4468387A, “Pesticidal N-sulfonyl N'-oxalate phosphorodiamido(di)thioates” (Rohm and Haas Company, priority 1982, dated 1984).

Assays:
Type in all cases: in vivo
[1] = system: Two-spotted spider mite (Tetranychus urticae); assay: mite test, sprayed infested bean leaf discs (two-spotted spider mite); conditions: 600 ppm; leaf disc spray; percent kill after 24 hours
Description: (§1) A test solution containing 600 ppm of test compound can be made by dissolving the test compound in a solvent (acetone:methanol, 1:1), adding surfactant and then water to give an acetone:methanol:water system of 10:10:80. A 1:1 mixture of an alkylarylpolyetheralcohol (commercially available under the trademark Triton X-155) and a modified phthalic glycerol alkyl resin (commercially available under the trademark Triton B-1956) can be utilized at the equivalent of one ounce per 100 gallons of test solution and a surfactant.
For the mite test, infested bean (Phaseolus limeanus) leaf discs (1.25 inches in diameter) containing about 50 mites are placed in a Petri dish lid on a moistened piece of cotton. The leaves are then sprayed with the test solution using a rotating turntable. They are held for 24 hours and then the percent kill is determined.

[2] = system: Southern root-knot nematode (Meloidogyne incognita); assay: nematode test, inoculated soil, cucumber root knots; conditions: about 30 ppm by volume in soil; knots on cucumber roots after about 23 days
Description: as §1
For the nematode test, soil is homogeneously inoculated with a macerated blend of tomato roots heavily knotted with the root knot nematode. Ten milliliters of the test solution are added to 200 milliliters of the inoculated soil in a 16 oz. jar to give a concentration by volume of about 30 ppm. The jar is then shaken to insure thorough mixing, immediately uncapped, and allowed to air for 24 hours. The soil is then placed into a 3 inch plastic pot after which time 3 cucumber (Cucumis sativus) seeds are planted. About 23 days thereafter, the cucumber plants are removed from the soil and the root system examined for the presence of knots. A total of 15 knots or less is considered as a measure of control.

[3] = system: Southern armyworm (Spodoptera eridania); assay: armyworm test, sprayed detached bean leaves, third instar southern armyworm larvae; conditions: 600 ppm, leaf spray, percent kill after 48 hours
Description: as §1
For the armyworm test, detached bean leaves on pieces of moistened filter paper are sprayed as above for the mite test in similar dishes and allowed to dry. The dishes are infested with 10 third instar southern armyworm larvae. The dishes are covered. After holding for 48 hours, the percent kill is obtained.

SMILES	Insecticidal Screening Results, % Control, Two-Spotted Mite [1] [%]	Nema (control of root-knot nematode) [2]	Insecticidal Screening Results, % Control, Southern Armyworm [3] [%]
CCC(C)SP(=O)(N(C)C(=O)C(=O)Oc1ccccc1)N(C)S(C)(=O)=O (stereo not drawn) [Example 6, N-Methanesulfonyl N,N'-dimethyl S-(1-methylpropyl) N'-phenoxycarbonylcarbonyl phosphorodiamidothioate]	100	+ (A total of 15 knots or less is considered as a measure of control)	100
CCC(C)OC(=O)C(=O)N(C)P(=O)(SC(C)CC)N(C)S(C)(=O)=O (stereo not drawn) [Example 9, N-Methanesulfonyl N,N'-dimethyl S-(1-methylpropyl) N'-(1-methylpropyloxy)carbonylcarbonyl phosphorodiamidothioate]	100	+ (A total of 15 knots or less is considered as a measure of control)	100
CCC(C)SP(=O)(N(C)C(=O)C(=O)OCCOC)N(C)S(C)(=O)=O (stereo not drawn) [Example 13, N-Methanesulfonyl N'-(2-methoxyethoxy)carbonylcarbonyl N,N'-dimethyl S-(1-methylpropyl) phosphorodiamidothioate]	100	+ (A total of 15 knots or less is considered as a measure of control)	100
CCC(C)SP(=O)(N(C)C(=O)C(=O)OC1CCCCC1)N(C)S(C)(=O)=O (stereo not drawn) [Example 4, N'-Cyclohexyloxycarbonylcarbonyl N-methanesulfonyl N,N'-dimethyl S-(1-methylpropyl) phosphorodiamidothioate]	100	+ (A total of 15 knots or less is considered as a measure of control)	30
CCC(C)SP(=O)(N(C)C(=O)C(=O)OC(C)C)N(C)S(C)(=O)=O (stereo not drawn) [Example 1, N-Methanesulfonyl N,N'-dimethyl N'-[(1-methylethoxycarbonyl)carbonyl] S-(1-methylpropyl) phosphorodiamidothioate]	100	+ (A total of 15 knots or less is considered as a measure of control)	100
CCC(C)SP(=O)(N(C)C(=O)C(=O)OCc1ccccc1)N(C)S(C)(=O)=O (stereo not drawn) [Example 14, N'-Benzyloxycarbonylcarbonyl N-methanesulfonyl N,N'-dimethyl S-(1-methylpropyl) phosphorodiamidothioate]	100	+ (A total of 15 knots or less is considered as a measure of control)	100
CCC(C)SP(=O)(N(C)C(=O)C(=O)OC(C)(C)C)N(C)S(C)(=O)=O (stereo not drawn) [Example 3, N-Methanesulfonyl N,N'-dimethyl N'-[(1,1-dimethylethoxy)carbonylcarbonyl] S-(1-methylpropyl) phosphorodiamidothioate]	100	+ (A total of 15 knots or less is considered as a measure of control)	100
CCSCCOC(=O)C(=O)N(C)P(=O)(SC(C)CC)N(C)S(C)(=O)=O (stereo not drawn) [Example 11, N'-(2-Ethylthioethoxy)carbonylcarbonyl N-methanesulfonyl N,N'-dimethyl S-(1-methylpropyl) phosphorodiamidothioate]	100	+ (A total of 15 knots or less is considered as a measure of control)	100
CCC(C)SP(=O)(N(C)C(=O)C(=O)Oc1ccc(SC)cc1)N(C)S(C)(=O)=O (stereo not drawn) [Example 8, N-Methanesulfonyl N,N'-dimethyl S-(1-methylpropyl N'-(4-methylthiophenoxy)carbonylcarbonyl phosphorodiamidothioate]	100	+ (A total of 15 knots or less is considered as a measure of control)	100
CCC(C)SP(=O)(N(C)C(=O)C(=O)SC1CCCCC1)N(C)S(C)(=O)=O (stereo not drawn) [Example 12, N'-(Cyclohexylthio)carbonylcarbonyl N-methansulfonyl N,N'-dimethyl S-(1-methylpropyl) phosphorodiamidothioate]	100	+ (A total of 15 knots or less is considered as a measure of control)	100
CCC(C)SP(=O)(N(C)C(=O)C(=O)OC)N(C)S(C)(=O)=O (stereo not drawn) [Example 2, N-Methanesulfonyl N'-[(methoxycarbonyl)carbonyl] N,N'-dimethyl S-(1-methylpropyl) phosphorodiamidothioate]	100	+ (A total of 15 knots or less is considered as a measure of control)	100
CCC(C)SP(=O)(N(C)C(=O)C(=O)OCCCl)N(C)S(C)(=O)=O (stereo not drawn) [Example 10, N'-(2-Chloroethoxy)carbonylcarbonyl N-methanesulfonyl N,N'-dimethyl S-(1-methylpropyl) phosphorodiamidothioate]	100	+ (A total of 15 knots or less is considered as a measure of control)	100
CCCSC(=O)C(=O)N(C)P(=O)(SC(C)CC)N(C)S(C)(=O)=O (stereo not drawn) [Example 7, N-Methanesulfonyl N,N'-dimethyl S-(1-methylpropyl) N'-(propylthio)carbonylcarbonyl phosphorodiamidothioate]	100	+ (A total of 15 knots or less is considered as a measure of control)	100
